Experimental data published in patent US20140155415A1, “BENZ[…] BENZODIOXINE COMPOUNDS THAT INTERACT WITH G[…] FOR THE TREATMENT OF DIABETES” (priority 2011, published 2014).

How the values were obtained:
[1] = biological target: T1, GK-GKRP (interaction between glucokinase and glucokinase regulatory protein) (Homo sapiens, UniProt Q14397); test: GK-GKRP Binding Assay (Binding), AlphaScreen; settings: avi-tagged GKRP, GK-fluorescein, AlphaScreen beads, 1 μM sorbitol-6-phosphate; read-out: GK-GKRP IC50 (Binding)
T1 construct: made in house; host or cells: GKRP: baculovirus system
T1 sequence (Q14397 1-625): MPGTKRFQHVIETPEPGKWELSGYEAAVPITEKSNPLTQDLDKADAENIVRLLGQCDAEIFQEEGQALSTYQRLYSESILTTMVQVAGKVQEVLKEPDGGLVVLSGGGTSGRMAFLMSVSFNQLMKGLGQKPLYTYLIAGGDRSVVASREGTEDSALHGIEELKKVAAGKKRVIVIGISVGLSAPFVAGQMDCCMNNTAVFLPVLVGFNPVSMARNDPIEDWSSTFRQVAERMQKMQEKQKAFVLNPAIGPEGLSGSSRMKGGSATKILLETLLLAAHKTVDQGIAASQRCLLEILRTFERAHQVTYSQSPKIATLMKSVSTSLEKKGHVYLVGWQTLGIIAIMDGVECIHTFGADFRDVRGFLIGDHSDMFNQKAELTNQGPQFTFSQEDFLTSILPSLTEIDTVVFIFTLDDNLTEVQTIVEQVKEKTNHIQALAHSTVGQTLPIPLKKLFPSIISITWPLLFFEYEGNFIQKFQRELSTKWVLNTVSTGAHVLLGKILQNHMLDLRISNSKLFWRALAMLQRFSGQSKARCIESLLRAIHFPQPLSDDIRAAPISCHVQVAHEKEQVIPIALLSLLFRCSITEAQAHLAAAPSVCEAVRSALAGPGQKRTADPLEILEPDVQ
Method in brief: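 Biotinylated, C-terminally avi-tagged human GKRP was preincubated 20 min at room temperature with compound, then fluorescein-labelled human hepatic GK was added (6 nM in the added buffer). The mix was incubated 2 h at room temperature in the dark before AlphaScreen reading. Buffer was 20 mM Tris pH 7.5, 0.05% BSA, 1 mM DTT, 1 μM sorbitol-6-phosphate.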

[2] = biological target: T2, GK-GKRP (glucokinase / glucokinase regulatory protein) (Homo sapiens, UniProt Q14397); test: GKRP LC MS/MS Biochemical Assay (LCMS/MS); settings: formation of 13C-glucose-6-phosphate from 13C-glucose by LC MS/MS, human His-hepatic GK, fructose-6-phosphate
T2 sequence (Q14397 1-625): T1 sequence (Q14397 1-625)
Method in brief: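 Human His-tagged hepatic GK (30 nM working stock, 5×) with GKRP in 50 mM Tris pH 7.5, 4 mM MgCl2, 6% DMSO; compound preincubated 30 min, then GK added for 30 min at room temperature. Acetonitrile-stopped; 13C-glucose-6-phosphate formed from 13C-glucose quantified by LC MS/MS.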

IC50 [1] [nM] | EC50 [2] [nM] | SMILES
40 | 42 | O=S(=O)(N[C@@H](c1cc2ccccc2o1)c1ccccc1I)c1ccc2c(c1)OCCCO2 (single isomer, unassigned) [Example 21 Peak #2]
2500 | 1800 | O=S(=O)(NC(c1cccc(O)c1)c1cc2ccccc2o1)c1ccc2c(c1)OCCCO2 (racemic) [Example 13, N-(1-benzofuran-2-yl(3-hydroxyphenyl)methyl)-3,4-dihydro-2H-1,5-benzodioxepine-7-sulfonamide]
11000 | 4600 | O=S(=O)(NC(c1ccccc1)c1cc2cnccc2s1)c1ccc2c(c1)OCCCO2 (racemic) [Example 62, N-(phenyl(thieno[3,2-c]pyridin-2-yl)methyl)-3,4-dihydro-2H-1,5-benzodioxepine-7-sulfonamide]
2300 | 2500 | O=S(=O)(NC(c1ccccc1)c1cc2ncccc2s1)c1ccc2c(c1)OCCCO2 (racemic) [Example 61, N-(phenyl(thieno[3,2-b]pyridin-2-yl)methyl)-3,4-dihydro-2H-1,5-benzodioxepine-7-sulfonamide]
47 | 72 | C#Cc1ccccc1C(NS(=O)(=O)c1ccc2c(c1)OCCCO2)c1cc2ccccc2o1 (racemic) [Example 8, N-(1-benzofuran-2-yl(2-ethynylphenyl)methyl)-3,4-dihydro-2H-1,5-benzodioxepine-7-sulfonamide]
140 | 40 | CSc1ccccc1[C@H](NS(=O)(=O)c1ccc2c(c1)OCCCO2)c1cc2ccccc2s1 (single isomer, unassigned) [Example 41 Peak #1]
330 | 170 | C[C@@](O)(c1ccnc(-c2cccc3cc([C@@H](NS(=O)(=O)c4ccc5c(c4)OCCCO5)c4ccccc4)sc23)c1)C(F)(F)F (single isomer, unassigned) [Example 70 Peak #3]
970 | 340 | O=S(=O)(NC(c1cc2ccccc2o1)c1ccccc1OC(F)(F)F)c1ccc2c(c1)OCCCO2 (racemic) [Example 18, N-(1-benzofuran-2-yl(2-(trifluoromethoxy)phenyl)methyl)-3,4-dihydro-2H-1,5-benzodioxepine-7-sulfonamide]
1000 | 480 | O=S(=O)(NC(c1ccccc1)c1cc2cccc(Cl)c2s1)c1ccc2c(c1)OCCCO2 (racemic) [Example 72, N-((7-chloro-1-benzothiophen-2-yl)(phenyl)methyl)-3,4-dihydro-2H-1,5-benzodioxepine-7-sulfonamide]
28 | 26 | COc1ccccc1[C@@H](NS(=O)(=O)c1ccc2c(c1)OCCCO2)c1cc2ccccc2s1 (single isomer, unassigned) [Example 40 Peak #2]
270 | 360 | COc1cccnc1C(NS(=O)(=O)c1ccc2c(c1)OCCCO2)c1nc2ccccc2s1 (racemic) [Example 53, N-(1,3-benzothiazol-2-yl(3-methoxy-2-pyridinyl)methyl)-3,4-dihydro-2H-1,5-benzodioxepine-7-sulfonamide]
83 | 26 | O=S(=O)(N[C@@H](c1cc2ccccc2o1)c1ccccc1Br)c1ccc2c(c1)OCCCO2 (single isomer, unassigned) [Example 22 Peak #2]
5700 | > 20000 | O=S(=O)(N[C@H](c1cc2ccccc2o1)c1ccccc1Cl)c1ccc2c(c1)OCCCO2 (single isomer, unassigned) [Example 20 Peak #1]
1700 | 2000 | Cc1ccccc1C(NS(=O)(=O)c1ccc2c(c1)OCCCO2)c1oc2ccccc2c1C (racemic) [Example 45, N-((3-methyl-1-benzofuran-2-yl)(2-methylphenyl)methyl)-3,4-dihydro-2H-1,5-benzodioxepine-7-sulfonamide]
170 | 95 | COc1ccccc1C(NS(=O)(=O)c1ccc2c(c1)OCCCO2)c1cc2ccccc2o1 (racemic) [Example 17, N-(1-benzofuran-2-yl(2-methoxyphenyl)methyl)-3,4-dihydro-2H-1,5-benzodioxepine-7-sulfonamide]
120 | 85 | Cc1cccnc1[C@@H](NS(=O)(=O)c1ccc2c(c1)OCCCO2)c1cc2ccccc2o1 (single isomer, unassigned) [Example 26 Peak #2]
10 | 22 | CSc1ccccc1C(NS(=O)(=O)c1ccc2c(c1)OCCCO2)c1cc2cccnc2s1 (racemic) [Example 48, N-((2-(methylsulfanyl)phenyl)(thieno[2,3-b]pyridin-2-yl)methyl)-3,4-dihydro-2H-1,5-benzodioxepine-7-sulfonamide]
6600 | 2800 | O=S(=O)(NC(c1cc2ccccc2o1)c1nccs1)c1ccc2c(c1)OCCCO2 (racemic) [Example 34, N-(1-benzofuran-2-yl(1,3-thiazol-2-yl)methyl)-3,4-dihydro-2H-1,5-benzodioxepine-7-sulfonamide]
57 | 27 | CSc1ccccc1C(NS(=O)(=O)c1ccc2c(c1)OCCCO2)c1cc2ccccc2s1 (racemic) [Example 41, N-(1-benzothiophen-2-yl(2-(methylsulfanyl)phenyl)methyl)-3,4-dihydro-2H-1,5-benzodioxepine-7-sulfonamide]
110 | 74 | C[C@](O)(c1ccnc(-c2cccc3cc([C@@H](NS(=O)(=O)c4ccc5c(c4)OCCCO5)c4ccccc4)sc23)c1)C(F)(F)F (single isomer, unassigned) [Example 70 Peak #4]
220 | 67 | CCc1ccccc1C(NS(=O)(=O)c1ccc2c(c1)OCCCO2)c1cc2ccccc2o1 (racemic) [Example 6, N-(1-benzofuran-2-yl(2-ethylphenyl)methyl)-3,4-dihydro-2H-1,5-benzodioxepine-7-sulfonamide]
1 | 10 | CSc1ccccc1[C@@H](NS(=O)(=O)c1ccc2c(c1)OCCCO2)c1cc2ccncc2s1 (single isomer, unassigned) [Example 64 Peak #2]
1800 | 990 | O=S(=O)(NC(c1ncccn1)c1cc2ccccc2o1)c1ccc2c(c1)OCCCO2 (racemic) [Example 29, N-(1-benzofuran-2-yl(2-pyrimidinyl)methyl)-3,4-dihydro-2H-1,5-benzodioxepine-7-sulfonamide]
4800 | > 50000 | CCc1ccccc1[C@H](NS(=O)(=O)c1ccc2c(c1)OCCCO2)c1cc2ccccc2o1 (single isomer, unassigned) [Example 6 Peak #1]
9 | 37 | CSc1ccccc1C(NS(=O)(=O)c1ccc2c(c1)OCCCO2)c1nc2cccnc2s1 (racemic) [Example 65, N-((2-(methylsulfanyl)phenyl)([1,3]thiazolo[5,4-b]pyridin-2-yl)methyl)-3,4-dihydro-2H-1,5-benzodioxepine-7-sulfonamide]
93 | 150 | COc1cccnc1C(NS(=O)(=O)c1ccc2c(c1)OCCCO2)c1cc2cccnc2s1 (racemic) [Example 49, N-((3-methoxy-2-pyridinyl)(thieno[2,3-b]pyridin-2-yl)methyl)-3,4-dihydro-2H-1,5-benzodioxepine-7-sulfonamide]
240 | 62 | Cc1ccccc1[C@@H](NS(=O)(=O)c1ccc2c(c1)OCCCO2)c1cc2ccccc2s1 (single isomer, unassigned) [Example 36 Peak #2]
